Reference: patent US20240409609A1, “REVERSIBLE LYSINE COVALENT MODIFIERS OF EGFR AND USES THEREOF” (Terremoto Biosciences, Inc., priority 2021, published 2024)
pIC50: −log10 of the molar value.

Columns and labels:
EGFR WT = EGFR WT (Homo sapiens (Human), UniProt P00533); assay: EGFR biochemical assay (AssayQuant chelation-enhanced fluorescence); conditions: 30 min preincubation, reaction time 360 min
EGFR WT in Ba/F3 cells = EGFR WT in Ba/F3 cells (Homo sapiens (Human), UniProt P00533); assay: Ba/F3 pEGFR assay (AlphaLISA p-EGFR Tyr1068); type: cell-based; conditions: 2 hrs treatment, media supplemented with EGF
Description: Cellular activity was determined using the Ba/F3 system for studying oncogenic mutant kinases (Warmuth 2007). […] Transduced cells were maintained in RPMI 1640 with 10% FBS. EGFR WT transduced cells were grown in media supplemented with EGF. To assay cellular activity of inhibitors, cells were treated with inhibitor from 1000X DMSO stock dilutions and incubated for 2 hrs at 37° C. 5% CO2. Subsequently, p-EGFR (Tyr1068) was quantified using a commercial sandwich immunoassay (PerkinElmer AlphaLISA SureFire assay; ALSU-PEGFR) according to the manufacturer's instructions. […] Curr Opin Oncol 19, 55-60 (2007), which is incorporated herein in its entirety.

Sequence of EGFR WT (P00533 668-1210): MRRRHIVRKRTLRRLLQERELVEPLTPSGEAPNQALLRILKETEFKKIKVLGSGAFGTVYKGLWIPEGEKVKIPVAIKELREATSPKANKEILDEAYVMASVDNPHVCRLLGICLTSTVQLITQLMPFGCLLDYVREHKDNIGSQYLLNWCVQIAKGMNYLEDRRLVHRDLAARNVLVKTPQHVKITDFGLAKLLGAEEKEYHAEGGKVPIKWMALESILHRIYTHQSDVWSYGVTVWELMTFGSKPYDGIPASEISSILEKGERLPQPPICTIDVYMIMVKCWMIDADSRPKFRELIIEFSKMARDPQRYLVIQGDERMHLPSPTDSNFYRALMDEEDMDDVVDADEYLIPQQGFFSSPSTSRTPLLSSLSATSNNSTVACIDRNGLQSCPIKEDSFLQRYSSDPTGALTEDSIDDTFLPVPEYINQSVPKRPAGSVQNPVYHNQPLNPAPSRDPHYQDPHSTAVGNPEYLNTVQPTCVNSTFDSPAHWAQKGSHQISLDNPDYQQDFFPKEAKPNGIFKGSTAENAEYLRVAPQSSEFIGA
Sequence of EGFR WT in Ba/F3 cells (P00533 25-1210): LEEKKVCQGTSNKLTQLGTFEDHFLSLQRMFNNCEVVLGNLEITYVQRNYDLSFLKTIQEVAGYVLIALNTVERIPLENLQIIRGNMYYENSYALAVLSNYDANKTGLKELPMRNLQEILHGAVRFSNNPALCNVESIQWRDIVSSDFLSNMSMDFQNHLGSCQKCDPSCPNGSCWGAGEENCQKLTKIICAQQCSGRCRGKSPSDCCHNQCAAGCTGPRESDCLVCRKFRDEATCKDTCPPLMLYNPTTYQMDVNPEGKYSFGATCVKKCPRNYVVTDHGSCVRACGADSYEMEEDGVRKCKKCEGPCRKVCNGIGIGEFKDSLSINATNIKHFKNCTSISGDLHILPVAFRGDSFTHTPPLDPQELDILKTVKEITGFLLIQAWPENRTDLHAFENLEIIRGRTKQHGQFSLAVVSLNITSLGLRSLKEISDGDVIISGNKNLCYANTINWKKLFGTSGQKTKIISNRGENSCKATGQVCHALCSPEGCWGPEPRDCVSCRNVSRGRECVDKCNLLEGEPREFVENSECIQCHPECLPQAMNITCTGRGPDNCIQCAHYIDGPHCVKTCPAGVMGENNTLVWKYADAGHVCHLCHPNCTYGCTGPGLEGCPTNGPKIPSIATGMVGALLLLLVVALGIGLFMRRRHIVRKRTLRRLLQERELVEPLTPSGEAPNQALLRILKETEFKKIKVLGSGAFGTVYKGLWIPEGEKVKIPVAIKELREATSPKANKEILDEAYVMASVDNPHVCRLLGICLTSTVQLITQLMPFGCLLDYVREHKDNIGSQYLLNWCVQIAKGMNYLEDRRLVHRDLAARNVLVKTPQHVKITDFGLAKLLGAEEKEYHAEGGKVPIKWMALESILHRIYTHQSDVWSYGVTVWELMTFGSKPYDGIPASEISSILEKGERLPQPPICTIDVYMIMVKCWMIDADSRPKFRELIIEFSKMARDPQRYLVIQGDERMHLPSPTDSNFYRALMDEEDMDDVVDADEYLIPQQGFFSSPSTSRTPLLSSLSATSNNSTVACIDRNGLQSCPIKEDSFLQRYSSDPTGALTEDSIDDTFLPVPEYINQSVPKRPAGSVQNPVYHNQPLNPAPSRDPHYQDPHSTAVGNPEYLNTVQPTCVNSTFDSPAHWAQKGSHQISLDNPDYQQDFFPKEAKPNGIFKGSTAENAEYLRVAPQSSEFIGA

| pIC50 (EGFR WT) | pIC50 (EGFR WT in Ba/F3 cells) | SMILES |
| --- | --- | --- |
| 8.07 | 5.31 | CN1CCN(Cc2ccc3[nH]/c(=N\C(=O)c4cccc(Oc5cccc(O)c5C=O)c4)n(CC(C)(C)O)c3c2)CC1 [Compound 52] |
| 6.57 |  | COc1cc(N2CCC(N3CCN(C)CC3)CC2)ccc1Nc1ncc(-c2ccc(O)c(C=O)c2)c(Oc2ccccc2)n1 [Compound 21] |
| < 6.00 |  | COc1cc(N2CCC(N3CCN(C)CC3)CC2)ccc1Nc1ncc(Cl)c(Oc2ccccc2-c2cccc(O)c2C=O)n1 [Compound 19] |
| 7.62 | < 5.00 | CN1CCN(Cc2ccc3[nH]/c(=N\C(=O)c4cc(Cl)nc(Cc5cccc(O)c5C=O)c4)n(CC(C)(C)O)c3c2)CC1 [Compound 86] |
| 6.14 | 5.24 | CC(=O)Nc1cccc(-c2cnn(-c3cc(C(=O)/N=c4\[nH]c5ccc(CN6CCN(C)CC6)cc5n4CC(C)(C)O)ccn3)c2)c1C=O [Compound 95] |
| 8.01 | 5.46 | CN1CCN(Cc2ccc3[nH]/c(=N\C(=O)c4ccnc(Oc5c(F)ccc(O)c5C=O)c4)n(CC(C)(C)O)c3c2)CC1 [Compound 68] |
| < 6.00 | 5.64 | CC(C)c1ccc(N2CC(CS(C)(=O)=O)C2)c2cnc(Nc3ccnc(N(C)Cc4cccc(C=O)c4O)n3)cc12 [Compound 49] |
| < 6.00 | < 5.00 | COc1cc(N(C)CCN(C)C)ccc1Nc1ncc(-c2ccc(O)c(C=O)c2)c(-c2cn(C)c3ccccc23)n1 [Compound 8] |
| 7.98 | < 5.00 | CC(C)(O)Cn1/c(=N/C(=O)c2ccnc(Oc3cccc(O)c3C=O)c2)[nH]c2ccccc21 [Compound 121] |
| 6.06 |  | COc1cc(N2CCC(N3CCN(C)CC3)CC2)ccc1Nc1ncc(Cl)c(Nc2cccc(-c3cccc(O)c3C=O)c2)n1 [Compound 26] |
| 7.94 | 5.34 | CC(C)(O)Cn1/c(=N/C(=O)c2ccnc(Oc3cccc(O)c3C=O)c2)[nH]c2ccc(N3CCC(C(C)(C)O)CC3)cc21 [Compound 70] |
| 7.28 | < 5.05 | CN1CCN(Cc2ccc3[nH]/c(=N\C(=O)c4ccnc(-n5cc(-c6cccc(O)c6C=O)cn5)c4)n(CC(C)(C)O)c3c2)CC1 [Compound 85] |
| 6.89 | 5.89 | CN1CCN(Cc2ccc3[nH]/c(=N\C(=O)c4ccnc(C#Cc5cccc(N)c5C=O)c4)n(CC(C)(C)O)c3c2)CC1 [Compound 99] |
| < 6.00 |  | CC(C)(O)Cn1/c(=N/C(=O)c2ccnc(C#Cc3cccc(C=O)c3O)c2)[nH]c2ccccc21 [Compound 137] |
| 6.59 |  | COc1cc(N(C)CCN(C)C)c(NC(C)=O)cc1Nc1nccc(-c2cn(Cc3ccc(O)c(C=O)c3)c3ccccc23)n1 [Compound 30] |
| 7.12 |  | COc1cc(N2CCC(N3CCN(C)CC3)CC2)ccc1Nc1ncc(Cl)c(Nc2ccc(NCc3ccc(C=O)c(O)c3)cc2)n1 [Compound 33] |
| 6.56 |  | COc1cc(N2CCC(N3CCN(C)CC3)CC2)ccc1Nc1ncc(Cl)c(Nc2ccccc2-c2c(OC)ccc(C=O)c2O)n1 [Compound 34] |
| 6.29 |  | CN1CCN(Cc2ccc3[nH]/c(=N\C(=O)c4ccnc(N(C)Cc5cccc(O)c5C=O)c4)n(CC(C)(C)O)c3c2)CC1 [Compound 96] |
| 7.01 |  | COc1cc(N2CCC(N3CCN(C)CC3)CC2)ccc1Nc1ncc(C#Cc2ccc(O)c(C=O)c2)c(Nc2ccccc2)n1 [Compound 17] |
| < 6.00 |  | CC(C)c1ccc(N2CC(CS(C)(=O)=O)C2)c2cnc(Nc3ccnc(N(C)Cc4cccc(O)c4C=O)n3)cc12 [Compound 43] |
| < 6.00 |  | CC(C)c1ccc(N2CC(CS(C)(=O)=O)C2)c2cnc(Nc3ccnc(-c4cccc(-c5cccc(O)c5C=O)c4)n3)cc12 [Compound 46] |
| 7.06 |  | COc1cc(N2CCC(N3CCN(C)CC3)CC2)ccc1Nc1ncc(Cl)c(Nc2cccc(-c3cccc(C=O)c3O)c2)n1 [Compound 25] |

The next lines start with the molecule.

| SMILES | pIC50 (EGFR WT) | pIC50 (EGFR WT in Ba/F3 cells) |
| --- | --- | --- |
| CC(C)c1ccc(N2CC(CS(C)(=O)=O)C2)c2cnc(Nc3ccnc(N(C)CCc4cccc(O)c4C=O)n3)cc12 [Compound 45] | < 6.00 | < 5.00 |
| CN1CCN(Cc2ccc3[nH]/c(=N\C(=O)c4ccc(F)c(Oc5cccc(O)c5C=O)c4)n(CC(C)(C)O)c3c2)CC1 [Compound 110] | 8.30 | 5.83 |
| COCCN1CCN(Cc2ccc3[nH]/c(=N\C(=O)c4ccnc(Oc5cccc(O)c5C=O)c4)n(CC(C)(C)O)c3c2)CC1 [Compound 75] | 7.84 | 5.52 |
| CC(C)c1ccc(N2CC(CS(C)(=O)=O)C2)c2cnc(Nc3ccnc(Oc4cccc(O)c4C=O)n3)cc12 [Compound 48] | < 6.00 | < 5.00 |
| CC(C)c1ccc(N2CC(CS(C)(=O)=O)C2)c2cnc(Nc3ccnc(-c4ccc(O)c(C=O)c4)n3)cc12 [Compound 47] | < 6.00 |  |
| Cc1cc(Oc2cccc(O)c2C=O)cc(C(=O)/N=c2\[nH]c3ccc(CN4CCN(C)CC4)cc3n2CC(C)(C)O)c1 [Compound 61] | 7.75 | < 5.00 |
| CN1CCN(Cc2ccc3[nH]/c(=N\C(=O)c4ccnc(-c5ccn(-c6cccc(O)c6C=O)n5)c4)n(CC(C)(C)O)c3c2)CC1 [Compound 94] | 6.35 | < 5.00 |
| CN1CCN(Cc2ccc3[nH]/c(=N\C(=O)c4cc(C=O)nc(Oc5cccc(O)c5C=O)c4)n(CC(C)(C)O)c3c2)CC1 [Compound 81] | 7.55 | < 5.00 |
| COc1cc(N2CCC(N3CCN(C)CC3)CC2)ccc1Nc1ncc(-c2cc(F)c(O)c(C=O)c2)c(Nc2ccccc2)n1 [Compound 9] | 8.31 | 7.37 |
| CN1CCN(Cc2ccc3[nH]/c(=N\C(=O)c4cc(C=O)cc(Oc5cccc(O)c5C=O)c4)n(CC(C)(C)O)c3c2)CC1 [Compound 58] | 7.99 | < 5.00 |
| Cc1cc(C(=O)/N=c2\[nH]c3ccc(CN4CCN(C)CC4)cc3n2CC(C)(C)O)cc(-n2cc(-c3cccc(O)c3C=O)cn2)n1 [Compound 102] | 6.46 | < 5.00 |
| COc1cc(N2CCC(N3CCN(C)CC3)CC2)ccc1Nc1ncc(-c2ccc(C=O)c(O)c2)c(Nc2ccccc2)n1 [Compound 4] | < 6.00 | < 5.00 |
| COc1cc(N(C)CCN(C)C)ccc1Nc1ncc(Cl)c(-c2cn(Cc3cccc(C=O)c3O)c3ccccc23)n1 [Compound 31] | < 6.00 |  |
| COc1cc(N2CCC(N3CCN(C)CC3)CC2)ccc1Nc1ncc(-c2ccc(O)c(C=O)c2)c(-c2ccccc2)n1 [Compound 22] | 6.68 |  |
| COc1cc(N2CCC(N3CCN(C)CC3)CC2)ccc1Nc1ncc(C#Cc2cccc(O)c2C=O)c(Nc2ccccc2)n1 [Compound 18] | 8.04 |  |
| CC(C)c1ccc(N2CC(CS(C)(=O)=O)C2)c2cnc(Nc3ccnc(C#Cc4cccc(O)c4C=O)n3)cc12 [Compound 41] | 7.65 |  |
| COc1cc(N2CCC(N3CCN(C)CC3)CC2)ccc1Nc1ncc(-c2ccc(O)c(C=O)c2)c(Nc2ccccc2P(C)(C)=O)n1 [Compound 27] | < 6.00 |  |
| COc1cc(N2CCC(N3CCN(C)CC3)CC2)ccc1Nc1ncc(-c2ccc(C=O)c(O)c2)c(Nc2ccccc2P(C)(C)=O)n1 [Compound 24] | 7.97 |  |
| COc1cc(N(C)CCN(C)C)ccc1Nc1ncc(Cl)c(-c2cn(Cc3cccc(O)c3C=O)c3ccccc23)n1 [Compound 32] | 6.28 |  |
| COc1cc(N2CCC(N3CCN(C)CC3)CC2)ccc1Nc1ncc(C#Cc2cccc(C=O)c2O)c(Nc2ccccc2)n1 [Compound 16] | 7.44 |  |
| CC(C)c1ccc(N2CC(CS(C)(=O)=O)C2)c2cnc(Nc3ccnc(-c4cccc(C=O)c4O)n3)cc12 [Compound 50] | < 6.00 |  |
